Experiment [1] deals with T1, TAOK3 (JIK) (Homo sapiens, UniProt Q9H2K8).
T1 sequence (Q9H2K8 1-898): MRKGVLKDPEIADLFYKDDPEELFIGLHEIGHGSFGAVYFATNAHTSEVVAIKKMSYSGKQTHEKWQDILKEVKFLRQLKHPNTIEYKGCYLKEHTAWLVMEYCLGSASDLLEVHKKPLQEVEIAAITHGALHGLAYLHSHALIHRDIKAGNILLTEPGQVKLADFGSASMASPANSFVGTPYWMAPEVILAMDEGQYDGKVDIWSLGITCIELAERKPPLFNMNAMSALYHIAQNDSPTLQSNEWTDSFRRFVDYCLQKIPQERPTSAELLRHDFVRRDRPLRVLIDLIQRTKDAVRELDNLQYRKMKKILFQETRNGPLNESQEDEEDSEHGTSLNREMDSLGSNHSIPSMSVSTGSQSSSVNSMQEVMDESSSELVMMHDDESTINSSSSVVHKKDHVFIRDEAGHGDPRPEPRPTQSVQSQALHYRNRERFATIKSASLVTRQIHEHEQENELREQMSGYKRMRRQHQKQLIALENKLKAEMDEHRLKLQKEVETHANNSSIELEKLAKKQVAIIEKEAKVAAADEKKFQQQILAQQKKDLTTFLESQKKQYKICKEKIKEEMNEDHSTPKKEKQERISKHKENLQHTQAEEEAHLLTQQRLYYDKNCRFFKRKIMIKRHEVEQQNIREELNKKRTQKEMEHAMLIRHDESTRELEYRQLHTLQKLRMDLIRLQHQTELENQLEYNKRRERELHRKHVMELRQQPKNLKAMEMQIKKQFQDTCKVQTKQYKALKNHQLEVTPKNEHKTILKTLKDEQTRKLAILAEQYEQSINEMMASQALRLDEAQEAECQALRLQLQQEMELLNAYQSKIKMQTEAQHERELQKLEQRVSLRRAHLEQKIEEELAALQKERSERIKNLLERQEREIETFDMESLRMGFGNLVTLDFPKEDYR
Nature of the experiment: SelectScreen kinase assay. The following applies: for Inhibition at 1 µM (%): LanthaScreen Binding.
Procedure: (§1) Selectivity profiling assays were performed by the Invitrogen SelectScreen™ Services. […] The concentration of ATP was selected to be equal to the KM, unless indicated otherwise.

The target of experiment [2] is ~150 kDa protein (Homo sapiens, UniProt O14976). The experiment in a line: Gel-based target engagement in HL-60 neutrophils. The following applies: HL-60, read-out: Inhibition of off-target labeling.
Procedure: Data represent means ± SEM.
The term in situ is used to designate experiments in which live cell cultures are treated with inhibitor, whereas the term in vitro refers to experiments in which the inhibitor is incubated with cell lysates. Compounds were diluted in growth medium from a 1000x concentrated stock solution in DMSO. […] After 48 h, cells were treated with compound for 1 h. Cells were collected by suspension in PBS and centrifuged (1000g, 5 min, rt). Pellets were flash-frozen in liquid nitrogen and stored at −80 °C until use. For in situ treatment post-differentiation, HL-60 cells were differentiated as described above and incubated with compound for 1 h unless specified otherwise. Cells were collected by suspension for non-adherent cells and trypsinization for adherent cells. After collection, cells were centrifuged (200g, 5 min, rt) and washed in equal volume of PBS (1000g, 5 min, rt). Cell pellets were flash-frozen in liquid nitrogen and stored at −80 °C until use.
Experiment [3] deals with T2, HUNK (Homo sapiens, UniProt P57058).
T2 sequence (P57058 1-714): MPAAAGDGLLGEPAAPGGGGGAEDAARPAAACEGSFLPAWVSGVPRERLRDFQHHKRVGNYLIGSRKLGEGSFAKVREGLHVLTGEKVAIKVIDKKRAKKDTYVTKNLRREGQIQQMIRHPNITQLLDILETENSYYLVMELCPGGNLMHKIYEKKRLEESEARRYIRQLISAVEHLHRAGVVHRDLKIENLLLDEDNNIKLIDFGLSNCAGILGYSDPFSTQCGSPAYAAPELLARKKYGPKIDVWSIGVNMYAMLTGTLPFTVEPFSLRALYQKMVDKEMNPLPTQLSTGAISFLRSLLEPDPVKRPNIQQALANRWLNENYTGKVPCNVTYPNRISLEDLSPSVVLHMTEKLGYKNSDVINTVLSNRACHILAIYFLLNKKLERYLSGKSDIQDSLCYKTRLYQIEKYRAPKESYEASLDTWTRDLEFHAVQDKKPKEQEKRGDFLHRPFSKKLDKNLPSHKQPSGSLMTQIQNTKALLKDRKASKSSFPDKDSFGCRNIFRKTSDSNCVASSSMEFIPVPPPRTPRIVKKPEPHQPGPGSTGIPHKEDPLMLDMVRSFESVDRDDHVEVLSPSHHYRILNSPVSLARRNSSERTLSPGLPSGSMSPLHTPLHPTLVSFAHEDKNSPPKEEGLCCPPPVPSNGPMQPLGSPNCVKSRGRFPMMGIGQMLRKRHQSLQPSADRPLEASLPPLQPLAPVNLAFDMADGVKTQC
Nature of the experiment: SelectScreen kinase assay.
Procedure: as §1

In experiment [4] the target is T3, PRKCI (PKC iota) (Homo sapiens, UniProt P41743).
T3 sequence (P41743 1-596): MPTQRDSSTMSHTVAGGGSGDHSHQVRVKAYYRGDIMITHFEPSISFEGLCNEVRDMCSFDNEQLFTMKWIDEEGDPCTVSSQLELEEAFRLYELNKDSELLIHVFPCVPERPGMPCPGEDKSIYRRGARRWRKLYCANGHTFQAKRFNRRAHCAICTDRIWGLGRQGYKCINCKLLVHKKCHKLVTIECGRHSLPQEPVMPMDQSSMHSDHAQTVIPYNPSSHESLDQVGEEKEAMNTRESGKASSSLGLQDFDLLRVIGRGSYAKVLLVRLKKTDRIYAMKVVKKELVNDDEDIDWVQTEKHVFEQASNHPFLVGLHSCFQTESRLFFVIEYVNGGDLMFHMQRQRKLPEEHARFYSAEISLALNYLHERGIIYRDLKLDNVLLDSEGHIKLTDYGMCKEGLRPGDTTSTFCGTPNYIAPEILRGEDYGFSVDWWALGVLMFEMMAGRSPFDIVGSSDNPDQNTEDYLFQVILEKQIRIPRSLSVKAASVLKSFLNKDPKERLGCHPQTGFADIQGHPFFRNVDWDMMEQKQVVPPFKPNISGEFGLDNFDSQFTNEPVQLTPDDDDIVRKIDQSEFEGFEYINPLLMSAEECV
Nature of the experiment: SelectScreen kinase assay. The following applies: for Inhibition at 1 µM (%): PRKCI (PKC iota), ZLYTE, ATP Km app.
Procedure: as §1

Experiment [5] concerns the target MAPK14 (p38 alpha) (Homo sapiens, UniProt Q16539). The experiment in a line: SelectScreen kinase assay.
Procedure: as §1
The target in experiment [6] is INSRR (IRR) (Homo sapiens, UniProt P14616). Nature of the experiment: SelectScreen kinase assay. The following applies: 1 h, 1 μM WEL028, 1 h preincubation.
Procedure: as §1
Experiment [7] deals with SYK (Homo sapiens, UniProt P43405). The experiment in a line: SelectScreen kinase assay.
Procedure: as §1
The target in experiment [8] is FGFR3 (Homo sapiens, UniProt P22607). Nature of the experiment: SelectScreen kinase assay.
Procedure: as §1
For experiment [9], the target named is STK32C (YANK3) (Homo sapiens, UniProt Q86UX6). Nature of the experiment: SelectScreen kinase assay.
Procedure: as §1
The target in experiment [10] is SIK3 (Homo sapiens, UniProt Q9Y2K2). Nature of the experiment: SelectScreen kinase assay.
Procedure: as §1
[11] abbreviates: 1 h, 1 μM WEL028, 1 h preincubation.

Several values for one entry are separate records, joined by “and”; a condition that tells them apart may be missing. Equal values may be shown once. Read-outs that look alike come from different tables or passages of the source.

The record followed here is PMC7316778 (Nature Communications, 2020).

Chain of SIK3 (Q9Y2K2 whole entry): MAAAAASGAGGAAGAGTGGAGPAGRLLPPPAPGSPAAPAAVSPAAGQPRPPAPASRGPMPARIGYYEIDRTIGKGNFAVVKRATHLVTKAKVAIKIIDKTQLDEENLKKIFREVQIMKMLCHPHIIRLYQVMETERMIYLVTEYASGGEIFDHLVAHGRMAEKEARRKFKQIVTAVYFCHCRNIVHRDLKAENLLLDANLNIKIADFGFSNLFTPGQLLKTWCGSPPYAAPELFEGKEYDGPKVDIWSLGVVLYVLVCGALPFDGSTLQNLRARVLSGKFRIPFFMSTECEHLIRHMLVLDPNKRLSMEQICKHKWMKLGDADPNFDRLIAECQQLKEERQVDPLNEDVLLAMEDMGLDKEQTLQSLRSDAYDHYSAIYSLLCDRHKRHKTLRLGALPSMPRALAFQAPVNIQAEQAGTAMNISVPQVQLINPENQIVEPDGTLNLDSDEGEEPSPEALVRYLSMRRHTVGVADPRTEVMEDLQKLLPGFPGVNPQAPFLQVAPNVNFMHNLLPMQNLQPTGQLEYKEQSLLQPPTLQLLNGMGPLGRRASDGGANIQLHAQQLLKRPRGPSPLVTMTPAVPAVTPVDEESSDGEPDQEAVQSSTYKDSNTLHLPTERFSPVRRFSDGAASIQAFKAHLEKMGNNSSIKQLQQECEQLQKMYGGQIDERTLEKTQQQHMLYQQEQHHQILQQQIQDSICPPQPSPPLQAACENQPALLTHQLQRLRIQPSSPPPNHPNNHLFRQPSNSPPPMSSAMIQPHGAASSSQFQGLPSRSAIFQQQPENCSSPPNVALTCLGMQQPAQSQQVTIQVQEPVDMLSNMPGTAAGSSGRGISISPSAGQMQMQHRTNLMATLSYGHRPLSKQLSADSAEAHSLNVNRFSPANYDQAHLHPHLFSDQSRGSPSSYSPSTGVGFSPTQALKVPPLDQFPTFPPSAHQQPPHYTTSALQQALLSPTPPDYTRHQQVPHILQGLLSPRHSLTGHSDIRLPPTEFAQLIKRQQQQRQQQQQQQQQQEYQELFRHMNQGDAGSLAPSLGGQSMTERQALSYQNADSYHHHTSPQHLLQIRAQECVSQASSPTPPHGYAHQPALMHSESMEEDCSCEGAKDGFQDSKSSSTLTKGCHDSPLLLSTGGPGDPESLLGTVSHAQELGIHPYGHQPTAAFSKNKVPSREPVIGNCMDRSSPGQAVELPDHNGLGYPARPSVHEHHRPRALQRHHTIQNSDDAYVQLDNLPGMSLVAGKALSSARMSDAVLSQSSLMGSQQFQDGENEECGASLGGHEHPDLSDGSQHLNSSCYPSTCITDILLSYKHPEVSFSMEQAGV
Chain of MAPK14 (p38 alpha) (Q16539 whole entry): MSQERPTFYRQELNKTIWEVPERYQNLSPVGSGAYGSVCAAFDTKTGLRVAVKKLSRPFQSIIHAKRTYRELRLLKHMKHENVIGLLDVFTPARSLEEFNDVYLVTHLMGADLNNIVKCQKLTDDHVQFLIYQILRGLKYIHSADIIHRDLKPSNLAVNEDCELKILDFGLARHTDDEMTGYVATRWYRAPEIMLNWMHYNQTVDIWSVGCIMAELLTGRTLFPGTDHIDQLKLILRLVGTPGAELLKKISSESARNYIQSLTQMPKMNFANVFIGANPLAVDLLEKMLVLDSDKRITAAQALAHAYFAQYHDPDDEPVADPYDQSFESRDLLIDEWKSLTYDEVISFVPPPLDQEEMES
Chain of STK32C (YANK3) (Q86UX6 whole entry): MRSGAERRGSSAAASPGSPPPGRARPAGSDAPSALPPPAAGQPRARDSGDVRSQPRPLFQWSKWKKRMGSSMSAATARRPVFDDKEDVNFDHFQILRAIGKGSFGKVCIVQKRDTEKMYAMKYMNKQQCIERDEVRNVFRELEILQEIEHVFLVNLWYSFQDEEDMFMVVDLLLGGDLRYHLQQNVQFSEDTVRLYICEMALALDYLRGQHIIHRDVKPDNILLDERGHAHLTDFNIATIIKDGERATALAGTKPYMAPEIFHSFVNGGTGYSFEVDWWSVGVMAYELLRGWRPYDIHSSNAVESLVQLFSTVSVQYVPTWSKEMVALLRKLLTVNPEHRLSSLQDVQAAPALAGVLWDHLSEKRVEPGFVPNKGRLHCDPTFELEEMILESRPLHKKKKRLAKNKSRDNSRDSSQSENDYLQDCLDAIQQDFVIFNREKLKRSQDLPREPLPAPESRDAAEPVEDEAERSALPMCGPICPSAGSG
Chain of FGFR3 (P22607 23-806): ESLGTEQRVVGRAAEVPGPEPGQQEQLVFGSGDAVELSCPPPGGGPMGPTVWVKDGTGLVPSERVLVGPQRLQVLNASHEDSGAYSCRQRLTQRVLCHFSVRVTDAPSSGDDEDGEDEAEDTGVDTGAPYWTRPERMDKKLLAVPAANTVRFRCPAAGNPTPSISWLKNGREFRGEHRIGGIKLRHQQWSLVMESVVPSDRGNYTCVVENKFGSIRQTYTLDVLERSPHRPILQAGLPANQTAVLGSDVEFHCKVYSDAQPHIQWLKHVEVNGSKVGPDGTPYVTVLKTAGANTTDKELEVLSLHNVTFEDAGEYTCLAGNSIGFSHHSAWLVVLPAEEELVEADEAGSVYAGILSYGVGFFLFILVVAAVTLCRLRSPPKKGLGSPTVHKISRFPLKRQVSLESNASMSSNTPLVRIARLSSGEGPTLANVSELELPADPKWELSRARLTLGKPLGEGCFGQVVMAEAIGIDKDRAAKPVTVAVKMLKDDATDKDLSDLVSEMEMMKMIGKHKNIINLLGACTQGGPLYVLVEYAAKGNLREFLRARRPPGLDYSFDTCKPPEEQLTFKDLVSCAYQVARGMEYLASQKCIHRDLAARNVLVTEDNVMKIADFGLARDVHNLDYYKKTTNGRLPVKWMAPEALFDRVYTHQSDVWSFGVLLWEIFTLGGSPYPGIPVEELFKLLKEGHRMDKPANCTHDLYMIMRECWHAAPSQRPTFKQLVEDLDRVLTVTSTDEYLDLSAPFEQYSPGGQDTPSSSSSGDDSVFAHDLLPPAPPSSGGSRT
Chain of INSRR (IRR) (P14616 27-1297): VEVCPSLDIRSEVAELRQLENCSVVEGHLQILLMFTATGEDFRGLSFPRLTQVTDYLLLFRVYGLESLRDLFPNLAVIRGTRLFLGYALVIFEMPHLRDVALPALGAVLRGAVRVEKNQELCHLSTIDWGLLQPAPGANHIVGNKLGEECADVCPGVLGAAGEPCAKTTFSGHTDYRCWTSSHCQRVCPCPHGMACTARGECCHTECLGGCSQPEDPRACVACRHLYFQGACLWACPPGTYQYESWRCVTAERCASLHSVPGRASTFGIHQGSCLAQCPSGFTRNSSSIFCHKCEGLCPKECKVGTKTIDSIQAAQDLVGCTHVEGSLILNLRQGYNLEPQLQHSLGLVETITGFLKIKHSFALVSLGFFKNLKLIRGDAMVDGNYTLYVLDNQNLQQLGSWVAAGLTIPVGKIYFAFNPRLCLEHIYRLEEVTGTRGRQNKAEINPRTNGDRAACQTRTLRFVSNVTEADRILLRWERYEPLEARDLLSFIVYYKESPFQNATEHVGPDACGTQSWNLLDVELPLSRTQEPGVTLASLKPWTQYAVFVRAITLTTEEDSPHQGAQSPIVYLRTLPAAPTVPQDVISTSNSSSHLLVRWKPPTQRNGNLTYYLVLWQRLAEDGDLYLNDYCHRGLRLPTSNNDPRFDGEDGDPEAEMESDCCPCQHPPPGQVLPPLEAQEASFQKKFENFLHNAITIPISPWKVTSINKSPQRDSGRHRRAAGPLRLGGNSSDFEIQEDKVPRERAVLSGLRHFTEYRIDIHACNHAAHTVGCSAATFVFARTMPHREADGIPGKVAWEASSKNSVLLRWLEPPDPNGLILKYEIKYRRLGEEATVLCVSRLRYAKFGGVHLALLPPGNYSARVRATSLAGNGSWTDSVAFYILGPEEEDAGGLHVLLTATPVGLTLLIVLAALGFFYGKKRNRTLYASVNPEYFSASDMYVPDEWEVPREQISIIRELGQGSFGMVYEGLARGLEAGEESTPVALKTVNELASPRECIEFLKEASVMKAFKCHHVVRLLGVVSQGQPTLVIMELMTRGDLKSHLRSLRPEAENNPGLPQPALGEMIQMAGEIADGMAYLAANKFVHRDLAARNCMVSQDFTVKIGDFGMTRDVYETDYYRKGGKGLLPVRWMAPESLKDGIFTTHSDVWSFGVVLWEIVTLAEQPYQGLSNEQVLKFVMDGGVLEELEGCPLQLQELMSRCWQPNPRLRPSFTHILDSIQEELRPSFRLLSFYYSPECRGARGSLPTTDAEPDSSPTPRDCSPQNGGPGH

For the molecule `C#CCOc1ccc(Nc2ncc(Cl)c(Nc3ccccc3NC(=O)C=C)n2)c(OC)c1` [Compound 6], the “Inhibition at 1 µM (%)” value is 2% in [1]; 0% in experiment [1] (listed as WEL028, 1 µM); 21% in experiment [3] (HUNK, 1 µM, LanthaScreen Binding, listed as WEL028, 1 µM); 15% in experiment [4]; 5% in experiment [4] (listed as WEL028, 1 µM); 4% and 10% in experiment [5] (MAPK14 (p38 alpha) Direct, 1 µM, ZLYTE, ATP Km app, listed as WEL028, 1 µM). Besides, the “Inhibition at 1 µM (%)” value in [7] (1 µM, ZLYTE, ATP Km app, listed as WEL028, 1 µM) was 1% and 5%; in [10] (1 µM, LanthaScreen Binding, listed as WEL028, 1 µM), 0% and 5%. For the same molecule, the inhibition at 1 µM in experiment [1] (setting [11]) came to 1%; in [3] (setting [11]), 20%; in experiment [3] (read-out: Inhibition at 1 µM (%), HUNK, 1 µM, LanthaScreen Binding) it was 19%; in experiment [4] (setting [11]), 10%; in [6], 9%; in experiment [8] (setting [11]), 6%. Besides, the inhibition at 1 µM in [8] (read-out: Inhibition at 1 µM (%), FGFR3, 1 µM, ZLYTE, ATP Km app) came out at 7%; in experiment [9] (1 h), 3%; in experiment [9] (read-out: Inhibition at 1 µM (%)), 3%. The inhibition at 0.1 µM in experiment [2] is ~80%. In addition, the “Inhibition (%)” value in experiment [5] (1 μM WEL028, 1 h preincubation) was 7%; in [7] (1 μM WEL028, 1 h preincubation) it was “did not inhibit”; in experiment [10] (1 μM WEL028, 1 h preincubation), 2%.
